Each structure is given as a SMILES string.

Broadly, the EC50 is the midpoint of the concentration-response curve. Low values mean higher potency in that assay, high ones lower potency in that assay. The term Hill coefficient denotes a measure of the steepness of the concentration-response curve.

Holding throughout (experiment): Two-electrode voltage clamp, ACh-dependent (m2R-dependent) K+ current activation
What all share (assay type): cell-based, mouse
On the technique in general: Two-electrode voltage clamp is typically applied to oocytes expressing channels or transporters.

One assay deals with Kir3.2 M313D. Particulars: Kir3.2 M313D with porcine m2R in Xenopus oocytes; −120 mV; Hill equation fit, min not zero. The source says: (§1) The mouse Kir3.2d isoform was subjected to functional analyses. The amino acid numbers correspond to the longest mouse Kir3.2 isoform. Point mutations were introduced using the QuikChange site-directed mutagenesis kit (Stratagene, La Jolla, CA), and the presence of the mutations was confirmed by direct DNA sequencing. The care of Xenopus laevis was in accordance with the guideline of the Institute of Experimental Animal Sciences, Osaka University. The protocol was approved by the Animal Experiment Committee of Osaka University. The frogs were deeply anesthetized by immersing in 0.2% tricaine methanesulfonate for 20 min at 18°C. A portion of an ovary lobe was surgically removed and incubated with collagenase to remove follicular cells. The oocytes were injected with the cRNAs of Kir3.2 and porcine m2-muscarinic receptor (m2R), and maintained in modified Barth’s solution at 18°C with daily solution changes. Electrophysiological studies were undertaken 48–72 h later at room temperature (20–25°C). Two-electrode voltage-clamp recordings from oocytes were performed using a GeneClamp 500B amplifier (Axon Instruments, Sunnyvale, CA). […] The bath solution contained 40 mM KCl, 50 mM NaCl, 3 mM MgCl2, 0.15 mM niflumic acid, and 5 mM HEPES-KOH (pH 7.4). The currents were recorded in the absence or presence of various concentrations of acetylcholine (ACh). Ba^2+ (3 mM) was added at the end of the recording to estimate the endogenous leak current. The data are expressed as mean values ± standard error of the mean. For the quantitative estimation of ACh-dependent current responses of the wild-type (WT) and mutant channels, the current amplitudes at the end of test pulses at each ACh concentration ([ACh]) were fitted using the following equation:
(§2) I=min+[(max−min)/(1+(EC50/[ACh])^nH)]
(§3) where I is the current amplitude measured at the [ACh], n H is the Hill coefficient, and EC50 is the concentration that induces 50% of the maximal response. […] The values of n H and EC50 were calculated using a non-linear least-squares best fit (SigmaPlot 9; Systat Software). Statistical analyses were performed by one-way ANOVA with post-hoc tests.

The next assay concerns Kir3.2 M313Q. To be noted: Kir3.2 M313Q with porcine m2R in Xenopus oocytes; −120 mV; Hill equation fit.
Source text: as §1, §2, §3

The subject of the next assay is Kir3.2 E236R. To be noted: Kir3.2 E236R with m2R in Xenopus oocytes; various concentrations of ACh; end of test pulse to −120 mV. The source says:
The mouse Kir3.2d isoform was subjected to functional analyses. The amino acid numbers correspond to the longest mouse Kir3.2 isoform. Point mutations were introduced using the QuikChange site-directed mutagenesis kit (Stratagene, La Jolla, CA), and the presence of the mutations was confirmed by direct DNA sequencing. The care of Xenopus laevis was in accordance with the guideline of the Institute of Experimental Animal Sciences, Osaka University. The protocol was approved by the Animal Experiment Committee of Osaka University. The frogs were deeply anesthetized by immersing in 0.2% tricaine methanesulfonate for 20 min at 18°C. […] The currents were recorded in the absence or presence of various concentrations of acetylcholine (ACh). […] The data are expressed as mean values ± standard error of the mean. For the quantitative estimation of ACh-dependent current responses of the wild-type (WT) and mutant channels, the current amplitudes at the end of test pulses at each ACh concentration ([ACh]) were fitted using the following equation: […]
Figure 6 Introduction of reverse charge at position 236 of Kir3.2. […] Typical current traces of the E236R mutant recorded in the presence of various concentrations of ACh are shown. […] The current amplitudes at the end of the test pulse were normalized to that recorded at -100 mV. […]

For `CC(=O)OCC[N+](C)(C)C` [ACh, acetylcholine], in the assay on Kir3.2 M313D, the response was half-maximal at 130 ± 10 nM (EC50) and the Hill coefficient amounted to 0.73 ± 0.06. Moreover, in the assay on Kir3.2 M313Q, the concentration giving a half-maximal response (EC50) amounted to 50 ± 5 nM and the Hill coefficient is listed as 0.81 ± 0.04. Also, the “Sensitivity of whole-cell K+ current to m2R-stimulation” value with Kir3.2 E236R is “insensitive”.

The values above are taken from PMC3823594, “Conformational Changes Underlying Pore Dilation in the Cytoplasmic Domain of Mammalian Inward Rectifier K^+ Channels” (PLoS ONE, 2013).
